Measured values published in patent publication US11096985B2, “Antimicrobial peptides, their variants and uses” (priority 2015, dated 2021).
≈ marks a conversion by molar mass, not a printed value. Entries after “also recorded” stand apart in the source; their conditions may differ. Where a SMILES comes first, the peptide text is derived from it. [ ]: non-standard residue; d: D form.

Key:
[1] = test system: clinical strains of Candida albicans; assay: MIC, clinical yeast strains, Candida albicans; type: cell-based; design: unit: μg/ml
Experimental: (§1) Minimum inhibition concentrations (MICs) were determined against Escherichia coli (ATCC 25922), Staphylococcus aureus (ATCC 25923), Klebsiella pneumoniae (ATCC 10031) and Pseudomonas aeruginosa (ATCC 27853). Also clinical strains of E. coli, K. pneumoniae, E. cloacae, P. aeruginosa, Serratia marcescens, Proteus mirabilis, S. pneumoniae, Acinetobacter baumannii, A. johnsonii and S. aureus were used for MICs assays. Additionally, clinical strains of yeast including Candida albicans, C. glabrata, C. parapsilosis and C. quillermondiae were used. The susceptibility of these microorganisms to Chain peptides were determined using micro broth dilution assay. Colonies of the respective microorganism from Muller Hinton (MH) agar plates incubated overnight were suspended in MH broth media and final concentration of microorganism was adjusted to 5.0×10^5 cfu/ml. An aliquot of 10 μl of each Chain peptide, or gentamicin, tetracycline as reference antibiotics were added in differing concentrations along with 90 μl of bacterial suspension to 96 well polypropylene plates and incubated at 37° C. for 20 to 24 hours. Concentrations of Chain peptides and reference antibiotics ranged from 0.125 to 128 μg/ml and the MICs were recorded as the lowest concentration with no visual growth of bacteria. Similarly, antifungal MICs were tested in Potato dextrose broth.
(§2) Clinical strains of yeasts including Candida albicans, C. glabrata, C. parapsilosis and C. quillermondiae were also tested with the 12 Chain peptides. The minimum inhibitory concentration (MICs) varied between these peptides and are presented in Tables 4a, 4b, 4c and 5a, 5b, 5c. Peptides Chain 105, 201 and 308 are broad spectrum antimicrobials with MICs between 0.5-32 μg/ml against all the bacteria and yeasts tested, except Serratia marcescens and Proteus mirabilis, against which the MICs were between 64-128 μg/ml. Peptide Chain 306 has narrow spectrum activity against E.coli at 1 μg/ml and for the rest of the bacterial strains at >32 μg/ml (FIG. 10).

[2] = test system: clinical strains of Acinetobacter johnsonii; type: cell-based
Experimental: as §1, §2

[3] = test system: clinical strains of C. quillermondiae; assay: MIC, clinical yeast strains, C. quillermondiae; type: cell-based; settings: C. quillermondiae clinical yeast strain 1
Experimental: as §1, §2

[4] = test system: clinical strains of C. glabrata; assay: MIC, clinical yeast strains, C. glabrata; type: cell-based, Candida glabrata; design: unit: μg/ml
Experimental: as §1, §2

[5] = test system: clinical strains of C. parapsilosis; assay: MIC, clinical yeast strains, C. parapsilosis; type: cell-based, Candida parapsilosis; design: unit: μg/ml
Experimental: as §1, §2

[6] = test system: Aspergillus flavus (DSM 1959); assay: Radial diffusion assay, antifungal, A. flavus; type: cell-based; settings: 20 μg
Experimental: (§3) The radial diffusion assay (RDA) was carried out as described by Andersen et al. (2010). Briefly, 30 ml of 1/10 Muller-Hinton broth (MHB) supplemented with 1% agarose and 5.0×10^5 CFU/ml S. aureus or E. coli or K. pneumoniae, P. aeruginosa cells was poured into a single-well omnitray (Nunc) and overlaid with a TSP 96-well plate. One hundred μg of each synthesized peptide was tested. The peptides were also tested against Fusarium oxysporum and Verticillium dahliae, for which 1/3 potato dextrose agarose was used. To test the synergistic effect of peptides, each peptide was mixed in equimolar concentrations. Mix1 (met1-12), Mix2 (met3, 4 and 5), Mix3 (met 8, 9 and 10), Mix 4 (met11, 12) and Mix5 (8, 9, 10, 11, 12) were prepared and tested against E. coli and S. aureus. Gentamicin and vancomycin were included as positive controls for bacteria and amphotericin B was used as the control for fungi.
(§4) By using rational design techniques, we have designed variants of peptides by incorporating or replacing various amino acids in the original peptides. Thus, we have designed and modified Chain 100, Chain 200 and Chain 300 with tryptophan (W), arginine (R) and lysine (K) at various positions to improve antimicrobial activity (FIGS. 4a-c and 5a-c). In some peptides we have also used other amino acids such as Leucine (L), Cysteine (C), Isoleucine (I), Phenylalanine (F) and Alanine (A). For synthesis, 32 variants and 3 original peptides were selected based on the various parameters such as positive charge, aliphatic index and instability index. Peptides variants were tested by using radial diffusion assay against Escherichia coli (ATCC 25922), Staphylococcus aureus (ATCC 25923), Klebsiella pneumoniae (ATCC 10031) and Pseudomonas aeruginosa (ATCC 27853) (FIGS. 6a-c). The zone of inhibition ranged between 10-18 mm for Escherichia coli and Staphylococcus aureus, 6-18 mm & 8-18 mm for Pseudomonas aeruginosa and Klebsiella pneumonia respectively (Table 2). For Gentamicin it was between 22-24 mm. Antifungal activity was tested for promising antibacterial peptides (Chains 104, 105, 109, 201, 204, 306, 307, 308, 310) against Aspergillus flavus (DSM 1959) and Penicillium chrysogenum (DSM 1075). All these peptides has activity at a concentration of 20 μg, Amphotericin B was used as a positive control at 20 μg (FIG. 7).

[7] = test system: gram positive and negative bacteria; assay: MIC by micro broth dilution, summary over the strains tested; type: cell-based
Experimental: as §1

human erythrocytes = type: cell-based
Experimental: In hemolysis assays, the ability of peptides at 128 μg/ml concentration to lyse human erythrocytes to release hemoglobin was measured. The peptides described here preferably have low hemolytic activity (0.2 to 3.8% hemolysis) in mammal body. […] These peptides are useful as antimicrobial drugs as they show little or no side effects at concentrations needed to kill bacteria.
Minimum inhibition concentrations (MICs) were tested by microbroth dilution method and Chain 104, 105 and 109 inhibited the growth of Escherichia coli (ATCC 25922), Staphylococcus aureus (ATCC 25923), Klebsiella pneumoniae (ATCC 10031) and Pseudomonas aeruginosa (ATCC 27853) between 1-8 μg/ml respectively (Tables 3a, 3b and 3c). The membranolytic activities of the peptides were tested by measuring the release of hemoglobin from erythrocytes of fresh blood donated by voluntiers. Hemoglobin levels were determined spectrometrically by taking OD at 540 nm by following the protocol of Schmidtchen et al., 2011.

[8] = test system: Penicillium chrysogenum (DSM 1075); assay: Radial diffusion assay, antifungal, P. chrysogenum; type: cell-based; settings: 20 μg
Experimental: as §3, §4

S. aureus COL (MRSA) = assay: Synergistic activity with Ertapenem (4 μg/ml) against MRSA, MIC; type: cell-based, Staphylococcus aureus; settings: Ertapenem 4 μg/ml; L-form
Experimental: as §1
Peptides Chain 104, Chain 105, Chain 201, Chain 308, Chain 310 were tested against antibiotic-sensitive strains of S. aureus RN4220 and methicillin resistant strains of S. aureus COL (MRSA). Chain peptides comprising of either L- or D-form amino acids were tested against these bacteria, and the D-form peptides were found have better activity compared to L-form (Table 6). Synergistic activity of chain peptides along with Ertapenem (4 μg/ml) was tested to know whether it will influence the activity against MRSA strains. […] Chain 310 has the best antibacterial activity against the MRSA strains with a MIC of 0.06 & 0.03 μg/ml along with Ertapenem (4 μg/ml) for both forms of L and D-peptides (Table 6).

[9] = Candida albicans clinical yeast strain 1
[10] = Candida albicans clinical yeast strain 2
[11] = Candida albicans clinical yeast strain 3
[12] = Candida albicans clinical yeast strain 4
[13] = Candida albicans clinical yeast strain 5
[14] = C. glabrata clinical yeast strain 1
[15] = C. glabrata clinical yeast strain 2
[16] = C. glabrata clinical yeast strain 3
[17] = C. glabrata clinical yeast strain 4
[18] = C. parapsilosis clinical yeast strain 1
[19] = C. parapsilosis clinical yeast strain 2
[20] = C. parapsilosis clinical yeast strain 3
[21] = C. parapsilosis clinical yeast strain 4

| Structure (SMILES) | Minimum inhibitory concentration [1, 9] | Minimum inhibitory concentration [1, 10] | Minimum inhibitory concentration [1, 11] | Minimum inhibitory concentration [1, 12] | Minimum inhibitory concentration [1, 13] | Minimum inhibitory concentration, Acinetobacter johnsonii strain 1 [2] [µg/mL] | Minimum inhibitory concentration [3] | Minimum inhibitory concentration [4, 14] | Minimum inhibitory concentration [4, 15] | Minimum inhibitory concentration [4, 16] | Minimum inhibitory concentration [4, 17] | Minimum inhibitory concentration [5, 18] | Minimum inhibitory concentration [5, 19] | Minimum inhibitory concentration [5, 20] | Minimum inhibitory concentration [5, 21] | antifungal activity against Aspergillus flavus [6] | activity against the four ATCC strains [7] | side effects to humans as tested by hemolysis assay (human erythrocytes) | antifungal activity against Penicillium chrysogenum [8] | MIC against MRSA strains along with Ertapenem, L-peptide (S. aureus COL (MRSA)) [µg/mL] |
| --- | --- | --- | --- | --- | --- | --- | --- | --- | --- | --- | --- | --- | --- | --- | --- | --- | --- | --- | --- | --- |
| CC[C@@H](C)[C@@H](NC(=O)[C@@H](CCSC)NC(=O)[C@@H](C)NC(=O)[C@@H](CCCNC(=N)N)NC(=O)[C@@H](Cc1c[nH]c2ccccc12)NC(=O)[C@@H](CCCCN)NC(=O)[C@H](N)CCCNC(=N)N)C(=O)N[C@H](CCCNC(=N)N)C(=O)N[C@H](CC(C)C)C(=O)N[C@H](Cc1c[nH]cn1)C(=O)N[C@H](C)C(=O)N[C@H](CCCCN)C(=O)N[C@H](CCCNC(=N)N)C(=O)N[C@H](CC(C)C)C(=O)N[C@H](CCCNC(=N)N)C(=O)N[C@H](CCCCN)C(=O)O [Chain104D] (H-[dR][dK][dW][dR][dA][dM][dI][dR][dL][dH][dA][dK][dR][dL][dR][dK]-OH) | 8 | 8 | 8 | 8 | 8 | 8 (≈ 3.77 µM) | 4 | 8 | 8 | 8 | 16 | 4 | 4 | 4 | 2 |  |  |  |  |  |
| CC[C@@H](C)[C@@H](NC(=O)[C@@H](CCSC)NC(=O)[C@@H](C)NC(=O)[C@@H](CCCNC(=N)N)NC(=O)[C@@H](Cc1c[nH]c2ccccc12)NC(=O)[C@@H](CCCCN)NC(=O)[C@H](N)CCCNC(=N)N)C(=O)N[C@H](CCCNC(=N)N)C(=O)N[C@H](CC(C)C)C(=O)N[C@H](Cc1c[nH]cn1)C(=O)N[C@H](C)C(=O)N[C@H](CCCCN)C(=O)N[C@H](Cc1c[nH]c2ccccc12)C(=O)N[C@H](CC(C)C)C(=O)N[C@H](CCCNC(=N)N)C(=O)N[C@H](CCCCN)C(=O)O [Chain105D] (H-[dR][dK][dW][dR][dA][dM][dI][dR][dL][dH][dA][dK][dW][dL][dR][dK]-OH) | 32 | 16 | 32 | 32 | 32 | 4 (≈ 1.86 µM) | 8 | 16 | 16 | 8 | 32 | 8 | 8 | 8 | 4 |  |  |  |  |  |
| CC(C)C[C@H](NC(=O)[C@H](Cc1c[nH]c2ccccc12)NC(=O)[C@H](Cc1ccccc1)NC(=O)[C@H](Cc1c[nH]c2ccccc12)NC(=O)[C@H](CCCCN)NC(=O)[C@H](CC(C)C)NC(=O)[C@@H](N)CCCNC(=N)N)C(=O)N[C@@H](Cc1ccccc1)C(=O)N[C@@H](CCCNC(=N)N)C(=O)N[C@@H](CCCCN)C(=O)N[C@@H](CCCNC(=N)N)C(=O)O [Chain307] (H-RLKWFWLFRKR-OH; N-terminus and C-terminus assumed) |  |  |  |  |  |  |  |  |  |  |  |  |  |  |  | has activity; also recorded: particularly active | very active | little side effects | has activity; also recorded: particularly active |  |
| CC(C)C[C@H](NC(=O)[C@H](CCCCN)NC(=O)[C@H](CCCCN)NC(=O)[C@H](Cc1ccccc1)NC(=O)[C@H](CC(C)C)NC(=O)[C@H](Cc1c[nH]c2ccccc12)NC(=O)[C@H](CCCNC(=N)N)NC(=O)[C@H](Cc1c[nH]c2ccccc12)NC(=O)[C@H](CCCCN)NC(=O)[C@H](CCCNC(=N)N)NC(=O)[C@@H](N)CCCCN)C(=O)O [Chain310] (H-KRKWRWLFKKL-OH; N-terminus and C-terminus assumed) |  |  |  |  |  |  |  |  |  |  |  |  |  |  |  | has activity; also recorded: particularly active | very active | little side effects | has activity; also recorded: particularly active | 0.06 |
